Legend:
CAR T cells = experiment: Seahorse analysis, ATP5 expression and ATP levels of CAR T cells manufactured in inosine; format: cell-based
Experimental: A and B: Seahorse analysis of CAR T cells at day 11 post-activation. Representative graphs of n=1-2 donors are shown. P values were determined by unpaired two-tailed t-tests. C: Flow analysis of ATP5 expression by CD8+ CAR T cells at day 17 post-activation. Representative histograms of two donors are shown. D: ATP levels in CAR T cells at day 14 post activation. Results from two independent experiments are shown (n=2).
Studied next was the effect of inosine on CAR T cell metabolism. […] Furthermore, the total amount of ATP generated by CAR T cells grown in the presence of inosine was increased (FIG. 4D).

HA CAR T cells = experiment: Phenotype of tonically signaling (exhausted) HA CAR T cells expanded in inosine media (flow cytometry, CyTOF); format: cell-based, human; conditions: for CD62L expression / frequency of central memory cells: CD8+ HA-CAR T cells, day 21, INO in presence or absence of glucose
Experimental: A: CD4+vs CD8+ ratio at day 14 post-activation. N-7 donors. P values were determined by paired two-tailed t-tests. […] C: IL-2 and IFNγ secretion at day 14 post-activation. P values were determined by unpaired two-tailed t-tests.
In this example, CAR T cells were cultured in control media until day 4 post activation, followed by continued expansion in regular or inosine-containing media. Phenotype of the cells was assessed by flow cytometry at day 21 post activation. A: Frequency of CD62L+ and CCR7+HA CAR+ T cells in 8 different donors. Representative histograms are shown. B: Relative frequency of central memory (CM), naïve, terminally differentiated (TEMRA) and effector memory (EM) HA CAR T cells. N=8 donors. C: Frequency of CD62L+ and CCR7+CD19.28 CAR+ T cells in 8 different donors. Representative histograms are shown. D: Relative frequency of central memory (CM), naïve, terminally differentiated (TEMRA) and effector memory (EM) CD19.28 CAR T cells. N=8 donors.
N=2-6 donors from independent experiments.
(Top) Dot plots of representative donor shown.
9A: Schematic of the experimental design. […] Graphs represent median expression of indicated markers. […] Representative donor of n=2 donor shown. […] Data are mean+SD from triplicate wells. […] 9K: Schematic of the experimental design. […] Representative donor of n=3 donor shown. […] Representative donor of n=2 donor shown. […] (Top) Dot plots of representative donor shown. […] Representative donor of n=3 donor shown. […] N=2-4 donors from independent experiments. […] N=2-6 donors from independent experiments. […] N=2-4 donors from independent experiments. […] (Top) representative dot plots shown.
Transcriptomic and epigenetic hallmarks of exhaustion occur within 10-12 days in the HA-CAR model. To determine if INO can induce a stem-like phenotype in already exhausted T cells, HA-CAR T cells were exposed to INO on day: 4, 7, 10 and 14 post-activation, analyzing phenotype and function (FIG. 9K).
HA-CAR T cells were cultured from day 4 post-activation in control media containing glucose (11 mM), inosine only at 11 mM (INO), media containing both inosine and glucose at 11 mM or media without glucose or inosine.
To assess whether the observed increase in stemness and functionality is attributable to inosine addition or glucose deprivation, HA-CAR T cells were cultured from day 4 post-activation in control media containing 11 mM glucose (CTR), no glucose and no inosine (starvation condition), 11 mM inosine only (INO), or media containing both inosine and glucose (FIG. 7A). Proliferation was assessed at day 10.

Nalm6 leukemia cells = experiment: Nalm6 leukemia in NSG mice treated with CD19.28 CAR T cells (in vivo stress test); conditions: 0.2×10^6 CD19.28 CAR T cells IV day 3, manufactured in inosine vs regular media
Experimental: A: NSG mice were injected IV with 1×10^6 Nalm6 leukemia cells at day 0, and then 0.2×10^6 CD19.28 CAR T cells, generated in regular or inosine-supplemented media were given IV on day 3. Tumor progression was monitored using bioluminescent imaging. Scales are normalized for all time points. Data are mean+s.e.m. of n=5 mice per group. […] B: NSG mice were injected IV with 1×10^6 Nalm6-GD2+ leukemia cells at day 0, and then 2×10^6 HA CAR T cells, generated in regular or inosine-containing media were given IV on day 3. Tumor progression was monitored using bioluminescent imaging. Scales are normalized for all time points. Data are mean+s.e.m. of n=5 mice per group. […] C: Overall survival. N=5 mice per group. Survival curves were compared using the log-rank Mantel-Cox test. D: NSG mice were injected intramuscular with 1×10^6 143b tumor cells. 4 days later the mice were injected with 1×10^7 Her2, Her2 grown in INO+ media or mock T cells IV. Tumor growth was monitored by caliper measurements. […] N=3-5 mice per group. Survival curves were compared using the log-rank Mantel-Cox test.
In this example, the in vivo anti-tumor potency of CAR T cells manufactured in the presence or absence of inosine was assessed. […] Three days post tumor injection, mice were evaluated and normalized for engraftment using bioluminescent imaging. […]

[1] = day 21, inosine supplementation

Excerpt for HA-CAR T cells: 9D: Levels of expression of indicated purinergic pathway gene transcripts from bulk RNA samples. Data are mean+/−s.e.m. from n=3 donors. P values determined by paired two-tailed t-tests. *, P<0.05; **, P<0.01; ***, P<0.001; **** P<0.0001. […] Histograms of representative donor (Left) and pooled data from n=8 donors shown (Right). P values determined by paired two-tailed t-tests. *, P<0.05; **, P<0.01; ***, P<0.001; ****, P<0.0001. 9F: UMAP plots of day 14 CD8+ (top) and CD4+ (bottom) HA-or HA-INO-CAR T cells analyzed using CyTOF. 9,000 or maximum of CD4+ CAR T cells from each condition from n=4 donors were organized by their combined expression of 5 exhaustion markers. Graphs represent median expression of indicated markers. P values determined by paired two-tailed t-tests. *, P<0.05; **, P<0.01; ***, P<0.001; ****, P<0.0001. 9G: Histograms showing GD2 antigen expressed by Nalm6-GD2 and 143b tumor lines with corresponding number of molecules per cell. 9H: Co-cultures of HA, HA-ADA-O/E-or HA grown in INO stimulated with Nalm6-GD2 (1:8 E: T) at day 14 post-activation. Tumor GFP fluorescence intensity was normalized to the first time point (duplicate or triplicate wells). Representative donor of n=2 donor shown. P values determined by two-way ANOVA with Dunnett's multiple comparisons test. *, P<0.05; **, P<0.01; ***, P<0.001; ****, P<0.0001. […] Error bars represent mean+SD of triplicate wells from one representative donor of n=1-2 donors. P values determined by unpaired two-tailed t-tests. *, P<0.05; **, P<0.01; ***, P<0.001; ****, P<0.0001. 9J: IL-2 release after 24h of CD19.4-1BBz-CAR T cells stimulated with Nalm6 tumor line alone or in co-culture with HA-or HA-INO-CAR T cells at 1:1:1 ratio. Data are mean+SD from triplicate wells. N=1 donor. *, P<0.05; **, P<0.01; *** P<0.001; ****, P<0.0001. […] Data polled from n=5 donors from independent experiments. P values determined by paired two-tailed t-tests *, P<0.05; **, P<0.01; ***, P<0.001; ****, P<0.0001. […] Tumor GFP fluorescence intensity was normalized to the first time point (duplicate or triplicate wells). Representative donor of n=3 donor shown. P values determined by two-way ANOVA with Dunnett's multiple comparisons test. *, P<0.05; **, P<0.01; ***, P<0.001; ****, P<0.0001. 9N: Co-cultures of CD19, or CD19-CAR T cells grown in INO media starting from indicated days post-activation and Nalm6-GD2 (1:10 E: T) starting at day 15 post-activation. Tumor GFP fluorescence intensity was normalized to the first time point (duplicate or triplicate wells). Representative donor of n=2 donor shown. P values determined by two-way ANOVA with Dunnett's multiple comparisons test. *, P<0.05; **, P<0.01; ***, P<0.001; ****, P<0.0001. […] Data are mean±s.e.m. of n=3-5 donors. P values determined by paired two-tailed t-tests. *, P<0.05; **, P<0.01; ***, P<0.001; ****, P<0.0001.

In the case of `O=c1[nH]cnc2c1ncn2[C@@H]1O[C@H](CO)[C@@H](O)[C@H]1O` [inosine, Inosine], the “ATP5 (Complex V) protein expression” value (CAR T cells; CD8+ CAR T cells, day 17, flow) is reported as “increased level”, the bioenergetic profile (CAR T cells; Seahorse, day 11) is reported as “shifting it towards oxidative phosphorylation” and the “extracellular acidification rate (ECAR)” value (CAR T cells; Seahorse, day 11 post-activation) is reported as “significantly decreased”. The “total amount of ATP generated” value (CAR T cells; day 14) was “increased”, the “expression of ornithine decarboxylase (ODC), spermidine synthase and elF5A” value (HA-CAR T cells; HA vs HA-INO) was “increased expression” and the “genes associated with TCR signaling” value (HA-CAR T cells; HA vs HA-INO) was “diminished expression”. The “genes associated with glutaminolysis and polyamine synthesis” value (HA-CAR T cells; HA vs HA-INO, day 14) was “increased expression”, the “genes associated with glycolysis and glucose driven metabolism (PFKP, ALDOA, GAPDH, PGK, ENO1)” value (HA-CAR T cells; HA vs HA-INO, day 14) was “downregulation” and the “variance in principal component analysis attributed to INO exposure” value (HA-CAR T cells; bulk RNA-seq PCA) was 41.3%. The CD62L expression (HA CAR T cells) was “significantly enhanced CD62L expression”, the “frequency of central memory cells” value (HA CAR T cells) was “significantly enhanced” and the CD62L expression (HA CAR T cells; listed as INO) was “enhanced CD62L expression”. The “frequency of central memory cells” value (HA CAR T cells; listed as INO) was “enhanced”, the “frequency of CD8+ cells” value (HA CAR T cells; HA CAR T cells in INO+ media vs control, day 14) was “increased the frequency of CD8+ cells” and the “expression of memory markers CD62L and CCR7” value (HA CAR T cells; HA CAR T cells in INO+ media, day 21) was “higher expression”. The “frequency of CD8+CD62L+ HA-CAR T cells” value (HA CAR T cells; INO added on day 4, 7, 10 or 14 post-activation, assessed day 21) was “increased frequency”, the “frequency of terminally differentiated and effector cells” value (HA CAR T cells; [1]) was “decreased frequency” and the “percentage of naïve and central memory HA CAR T cells” value (HA CAR T cells; [1]) was “elevated percentage”. For the same compound, the CD62L levels (HA CAR T cells; flow cytometry, CD8+ and CD4+ HA-CAR T cells, day 21) was “higher levels” and the “tumor growth (bioluminescent imaging)” value (Nalm6 leukemia cells) was “significantly delayed tumor growth”.

From US20260000763A1, “Methods of Manufacturing Therapeutic Cells” (The Board of Trustees of the Leland Stanford Junior …, priority 2022, published 2026)
